# Source: a melting point compilation (Tetko et al.; mined from patent text by program, amines drawn as free bases though some values may be those of a salt)
row,Structure (SMILES),melting point
1,COCCN(c1cccc2cc(C(=O)NCCSC(c3ccccc3)(c3ccccc3)c3ccccc3)[nH]c12)S(=O)(=O)c1cccs1,65 to 66 °C
2,CCOC(=O)CCCSc1nccc(NC(N)=NCC(F)(F)F)n1,120 to 122 °C
3,CC(=O)N1CCC(c2n[nH]c3cc(Cl)ccc23)CC1,172 to 174 °C
4,Nc1ccc2nc(-c3ccccc3)oc2n1,210 °C
5,O=C(O)COc1ccc(OCCC(c2ccccc2)(c2ccccc2)c2ccccc2)cc1,66 to 68 °C
6,COC(=O)CNC(=O)NC(CSC(C)=O)Cc1ccccc1 (centres undefined),102 °C
7,COc1ccc2ccc(NC(=O)c3ccccc3)nc2n1,134 °C
8,CN(C(=O)c1ccc2nonc2c1)C1CCCC1,110 to 111 °C
9,CCOc1cc(N2CCOCC2)c(OCC)cc1N=NNN1CCOCC1,137 to 139 °C
10,NS(=O)(=O)c1ccc(-n2ncc(F)c2-c2ccccc2)cc1,194 °C
11,CCOC(=O)c1[nH]c2cc(C(F)(F)F)ccc2c1NCC(=O)c1ccccc1,237 to 239 °C
12,Cc1ccc(Sc2cccc(-c3nc(=O)c4ccccc4s3)n2)cc1,177 to 178 °C
13,O=C(CCCCl)c1cc2c3c(c1)CCN3C(=O)CC2,123 to 124 °C
14,O=[N+]([O-])c1cccnc1Nc1cc(F)ccc1F,150 to 152 °C
15,COC(=O)c1cc(OCc2ccc3ccccc3n2)no1,133 to 134 °C
16,Nc1cc(S(=O)c2ccccc2)ccc1Cl (centres undefined),89 to 90 °C
17,C=C1CCc2onc(-c3ccccc3)c2C1=O,97 to 99 °C
18,CNc1ncnc(N2CCc3ccccc3CC2)c1[N+](=O)[O-],144 to 146 °C
19,O=C1OCc2c1oc1c(F)cccc1c2=O,164 °C
20,O=C=Nc1ccc(OC(=O)COCCOCC(=O)Oc2ccc(N=C=O)cc2)cc1,139 to 142 °C
21,CCCCCCCCCCCCCCCCCCOc1ccc(NC(=O)c2ccc(OC(C)=O)cc2)cc1OCCCCCCCCCCCCCCCCCC,107 °C
22,COC(=O)CCc1cnoc1-c1ccc(Cl)c(Cl)c1,74 to 75 °C
23,O=C(Nc1cccnc1)N1CCN(c2nc(-c3cccc(Cl)c3Cl)cs2)CC1,132 to 133 °C
24,COc1ccc(-c2ccc(C(C)=O)cc2)cc1F,149 to 150 °C
25,NC(CO)COc1ccc(Oc2ccccc2)cc1 (centres undefined),61.9 °C

row,Structure (SMILES),melting point
1,CCCc1c(OCc2ccc(CSC#N)cc2)ccc(C(C)=O)c1O,110 to 111 °C
2,N=C(N)NC1CCC(CCN2CCN(c3ccccc3)CC2)CC1 (centres undefined),140 to 170 °C
3,O=c1[nH]c2ccc3c(c2[nH]c1=O)CNCC3,294 to 297 °C
4,O=C(O)c1ccccc1Sc1ccc(C(O)=NCc2ccccc2)c(C(=O)O)c1,289 to 294 °C
5,Brc1ccc(C2=CCCC2)cc1,94 to 95 °C
6,O=C(NCNc1c(Nc2cccnc2)c(=O)c1=O)c1ccc(Cl)cc1,174 to 176 °C
7,CN(C)CCOc1ccc(C=O)c(O)c1,82 to 83 °C
8,CCOC(=O)c1c(C(F)F)nc(C(F)(F)F)c(C(=O)OCC)c1-c1ccncc1,43 to 45 °C
9,CCc1cnc(C2=NC(C)(C(C)C)C(=O)N2)c(C(=O)NCCCC(=O)OC)c1 (centres undefined),132 to 134 °C
10,Cc1c(NC(=O)c2ccc(OCC3CC3)cc2)ccc2[nH]c(CNC3CCCC3)cc12,207 to 208 °C
11,CCc1cccc(NC(=O)c2nnn[nH]2)c1O,185 to 187 °C
12,CC(C)(C)[Si](C)(C)Oc1ccc2cc3c(cc2c1)C(=O)c1cc2cc(O[Si](C)(C)C(C)(C)C)ccc2cc1C3=O,> 270 °C
13,CCCCCC12CCC(c3ccc(C#N)c(F)c3)(CC1)CC2,63 °C
14,NC(CS(=O)(=O)c1ccccc1)=NNC(=O)c1cc2ccccc2o1,205 to 220 °C
15,N=C(Nc1ccccc1-c1ccccc1)C1CCCCC1,148 to 150 °C
16,N#CCCNC(=O)Nc1cc(N2CC(c3ccccc3)CC2=O)ccn1 (centres undefined),260 to 263 °C
17,CCn1ncc2c(-c3cncc(C)c3)c(C(=O)NCc3ccc(OC)cc3)c(-c3ccccc3)nc21,203 to 204 °C
18,CSc1cc(C(F)(F)F)nn1-c1ccc(NC(=O)c2cccnc2F)cc1,167 to 168 °C
19,O=C1NN=C(c2ccc3c(c2)CCN(C2CCC2)CC3)C2CCCC12 (centres undefined),198 to 201 °C
20,O=C(Nc1ccc(-n2nc(C(F)(F)F)cc2C(F)(F)F)cc1)c1ccncc1[N+](=O)[O-],207 to 209 °C
21,Cc1cc(Cl)ccc1Cn1nc(OC(C)C)cc1CCCOc1nn(Cc2ccccc2)cc1CC(=O)O,81 to 82 °C
22,"CC(c1ccccc1)N1Cc2cncn2C(c2ccc(Br)cc2)C1=O (single isomer, unassigned; (+))",147 to 148 °C
23,CC(=O)c1sccc1CN1C(=O)C(NC(=O)Nc2cccc(C)c2)N=C(c2ccccc2F)c2ccccc21 (racemic),222 to 223 °C
24,CC(C)(C)C(=O)COc1ccc(S(=O)(=O)c2ccccc2)cc1,105 to 108 °C
25,Cc1cc(F)c([N+](=O)[O-])cc1N,178 °C

row,Structure (SMILES),melting point
1,CC(=O)OCC1COc2c(cc(Cl)cc2[N+](=O)[O-])N1 (centres undefined),76 to 84 °C
2,CCC1C(C)=NN=C(c2ccc(OC)c(OC)c2)c2cc(Cl)ccc21 (centres undefined),185 to 187 °C
3,CCC(=NO)c1ccc(Cl)cc1,56 to 57.5 °C
4,CC1(C)C(=O)Oc2ccc3cc(N)c(Cn4cncn4)cc3c21,160 to 163 °C
5,COc1cc(OC)nc(Oc2cccc3c2C(=O)OC3C#N)n1 (centres undefined),157 to 159 °C
6,COc1ccc(C2(C#Cc3cnc(N)nc3)CCC(O)CC2)cc1OC1CCCC1 (centres undefined),170 to 172 °C
7,COc1ccc(OCC(=O)CS(=O)(=O)C(c2ccc(Cl)cc2)c2ccc(Cl)cc2)cc1,116 to 117 °C
8,CCCCn1c(=S)c2c(ncn2CC(C)=O)n(CC)c1=O,173 to 174 °C
9,Brc1ccc2nc(-c3coc4ccccc34)cn2c1,151 to 153 °C
10,Cc1c(F)c(N)nc(-n2cc(C(=O)O)c(=O)c3cc(F)c(F)c(Cl)c32)c1F,253 to 257 °C
11,Cc1ccc(-c2nccc(-c3cccc(C(=O)O)c3)n2)cc1,225 to 226 °C
12,OC1CN(CCC#Cc2ccccc2)CCC1c1cccc(C(F)(F)F)c1 (centres undefined),77 to 79 °C
13,COc1cc(N)ccc1S(=O)(=O)n1c(=O)n(C2CCCCCC2)c2cc(Cl)ccc21,219 °C
14,CC(C)n1nc(OCc2ccccc2)cc1CO,81 to 82 °C
15,CC1=NN=C(c2ccc([N+](=O)[O-])cc2)c2ccc(Cl)cc2C1,227 to 228 °C
16,CC1(O)CCC2(C)C(CCC3C2CCC2(C)C(c4cc(CO)no4)CCC32)C1 (centres undefined),192 to 193 °C
17,CC(C)(C)NNC(=O)c1nn(-c2ccc(F)cc2F)c2c1C1CCC2C1 (centres undefined),140 to 142 °C
18,CCCc1c(OCCCOc2ccc3c(c2CCC)OC(C(=O)O)(C2CC2C(=O)O)CC3)ccc(C(C)=O)c1O (centres undefined),138 to 140 °C
19,CC(C)(C)C1(O)OC(=O)c2ccc(Cl)cc21 (centres undefined),160 to 161 °C
20,Cc1ccc(C2c3c(C)c(N4CCN(c5ccccc5[N+](=O)[O-])CC4)c(C)c(C)c3OC2(C)C)cc1 (centres undefined),178 to 180 °C
21,CCOC(=O)c1cc(OC2COCCC2=O)[nH]n1 (centres undefined),121 to 123 °C
22,O=C(NC(=O)c1c(F)cccc1Cl)Nc1ccc(Cl)cn1,210 to 215 °C
23,COc1ccc(C=Cc2nc3c(c(=O)n(C)c(=O)n3C)n2C)cc1,> 320 °C
24,CS(=O)(=O)Nc1cc2occ(C(=O)O)c(=O)c2cc1Oc1ccccc1,> 250 °C
25,CCOC(=O)C(=O)Nc1cc(OC)c(OC)cc1[N+](=O)[O-],163 °C

row,Structure (SMILES),melting point
1,COc1ccc(CCNC(=O)C(=O)NCCCCCCN)cc1OC1CCCC1,105 to 110 °C
2,Cc1ccc(S(=O)(=O)c2cn(C(=O)OC(C)(C)C)c3cc(-c4ccc(F)cc4)ccc23)cc1,135 °C
3,CCCC(CCCCNC(=O)c1cc2ccc(C3OC(CO)C(O)C(O)C3O)cc2oc1=O)C(=O)O (centres undefined),162 °C
4,FC(F)(F)c1ccc(OCCC(Br)c2ccccc2)cc1 (centres undefined),61 to 63 °C
5,Cc1ccc(S(=O)(=O)OCCC2CCN(C(c3ccccc3)(c3ccccc3)c3ccccc3)CC2)cc1,176 °C
6,C[C@@](O)(C(=O)Nc1ccc(S(=O)(=O)c2ccccc2S(C)(=O)=O)cc1Cl)C(F)(F)F,114 to 116 °C
7,Cc1cnc(C2(CCCCN3CCC(N4Cc5ccccc5C4=O)CC3)c3ccccc3-c3ccccc32)s1,146 to 148 °C
8,CCCc1nc(C=O)c(C(=O)OCC)n1Cc1ccc(-c2ccccc2C(=O)OC(C)(C)C)cc1,117 to 119 °C
9,CNC(=O)c1cnn(C(C)(C)C)c1C#N,162 to 165 °C
10,O=C1c2cccc3c(N4CCCC4)c(Br)cc(c23)C(=O)N1O,170 to 172 °C
11,CC(C)(C)C1=NN(c2ccc(C(=O)O)cc2)C(c2ccc(Cl)c(Cl)c2)C1 (centres undefined),217 °C
12,COc1cc(C=O)c(OC)cc1C,83 °C
13,CCCc1cc(C(=O)O)cc(CCC)c1OCCCCCCc1cccc(O)c1O,94 to 96 °C
14,COC(=O)c1ccc(Cc2cccc3ccc(C=C(C)C(=O)O)cc23)c(OC)c1,187 to 188 °C
15,O=C(O)C#Cc1c(Cl)cc(Cl)cc1Cl,170 to 175 °C
16,CCOc1ccccc1C(C)CC(=O)Nc1sc2c(c1C#N)CCNC2 (racemic),111 to 115 °C
17,Cc1ccc(C(=O)Nc2cccc(C(F)(F)F)c2)cc1-c1ccc2ccncc2c1,157 to 159 °C
18,CN(C)CC1=C(Nc2ccccc2)CC(C)(C)CC1=O,111 to 112 °C
19,CCc1ccc(C2C(=O)Oc3c2cc(C(C)(C)C)cc3C(C)(C)C)cc1 (centres undefined),127 to 132 °C
20,CC(C)CN(CC(C)C)C(=O)c1c([N+](=O)[O-])cccc1[N+](=O)[O-],97 to 99 °C
21,CC(C)c1cc2c(cc1O)C(C)(C)CCC2(C)C,79 to 80 °C
22,CSC(=S)NCc1ccc(O)cc1,90 to 91 °C
23,COCc1ccc(-c2ncccc2C#N)cc1,74 °C
24,COc1ccc(S(=O)(=O)N(C)C)cc1-c1ccc(CN2CCCCC2)[nH]1,78 to 79 °C
